Data on two compounds can be found in PMC8710297, “Identification of potent SENP1 inhibitors that inactivate SENP1/JAK2/STAT signaling pathway and overcome platinum drug resistance in ovarian cancer” (Clinical and Translational Medicine, 2021).

The structures appear in SMILES notation.

The target in this assay is T1, SENP1(C603A) (Homo sapiens, UniProt Q9P0U3, C603A).
T1 construct: GST; made in house
T1 sequence (Q9P0U3 1-644 C603A): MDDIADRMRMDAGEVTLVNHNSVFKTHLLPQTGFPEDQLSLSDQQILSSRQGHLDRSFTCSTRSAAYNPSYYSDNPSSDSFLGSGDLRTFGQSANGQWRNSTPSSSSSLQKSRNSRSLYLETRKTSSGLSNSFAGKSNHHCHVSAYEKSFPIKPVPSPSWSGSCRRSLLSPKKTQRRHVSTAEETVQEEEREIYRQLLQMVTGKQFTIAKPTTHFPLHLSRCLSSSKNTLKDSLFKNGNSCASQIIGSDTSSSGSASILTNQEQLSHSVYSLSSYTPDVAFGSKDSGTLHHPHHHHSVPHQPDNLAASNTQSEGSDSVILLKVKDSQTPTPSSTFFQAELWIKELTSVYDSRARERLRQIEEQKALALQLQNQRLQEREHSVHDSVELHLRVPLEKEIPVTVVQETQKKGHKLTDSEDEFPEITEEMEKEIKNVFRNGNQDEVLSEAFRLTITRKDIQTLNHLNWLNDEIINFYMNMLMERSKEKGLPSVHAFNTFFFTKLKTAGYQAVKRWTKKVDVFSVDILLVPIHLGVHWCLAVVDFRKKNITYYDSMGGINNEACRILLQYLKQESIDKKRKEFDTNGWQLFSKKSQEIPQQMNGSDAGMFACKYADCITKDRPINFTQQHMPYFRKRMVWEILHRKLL
Briefly: In vitro thermal shift assay with mutant GST-SENP1(C603A). The format is binding. As to conditions: compared to DMSO. The method, then: FIGURE 2 UA directly interacts with Sentrin‐specific protease 1 (SENP1). (A) Cellular thermal shift assay to examine the interaction of UA with SENP1. IGROV1 CR cells pretreated with MG132 (10 μM, 1 h) were incubated with DMSO or UA for 4 h before being shifted to indicated temperatures. SENP1 stability was analyzed by using Western blot against SENP1 antibody. Right panel, quantification of non‐denatured SENP1 fraction shown in the left panel. (B) Cell‐free thermal shift assay to examine interactions of UA with SENP1. Purified SENP1 proteins were incubated with DMSO or UA for 4 h before being shifted to the indicated temperatures. SENP1 stability was analyzed by using Western blot against SENP1 antibody. Right panel, quantification of non‐denatured SENP1 fraction shown in the left panel. (C) The predicted docking pose of UA (C: green; H: white; O: red) at the hydrophobic catalytic cleft of SENP1 (C: salmon; H: white; O: red; N: blue). Key amino acid residues were highlighted. […] Stability of SENP1(C603A) was analyzed by using Western blot against SENP1 antibody. […] Left; Ultra‐high performance liquid‐chromatography‐MS/MS analyses of associated UA in indicated samples, right; quantification of data shown in left (the binding affinity of UA with SENP1‐C603A was normalized as 1). […]
The qu anti ficatio n of immunohistochemical sta in ing wa s scored blindly at lea st by two independent obser vers. […]

For `CC1(C)CC[C@]2(C(=O)O)CC[C@]3(C)C(=CC[C@@H]4[C@@]5(C)CC[C@H](O[C@@H]6O[C@H](C(=O)O)[C@@H](O)[C@H](O[C@@H]7OC[C@@H](O)[C@H](O)[C@H]7O)[C@H]6O)C(C)(C)[C@@H]5CC[C@]43C)[C@@H]2C1` [Mc, Momordin Ιc], the “thermal stability of purified mutant SENP1(C603A)” value is “not increased”.
As for `C[C@H]1[C@H](C)CC[C@]2(C(=O)O)CC[C@]3(C)C(=CC[C@@H]4[C@@]5(C)CC[C@H](O)C(C)(C)[C@@H]5CC[C@]43C)[C@H]12` [UA, ursolic acid, reference compound], the “thermal stability of purified mutant SENP1(C603A)” value was “not increased”.
